Measured values as given in US7271005B2, “Modulation of bacterial membrane permeability” (priority 2002, dated 2007).

T1: PprA / PprB (Pseudomonas aeruginosa, UniProt Q9HWA7)
T1 construct: coding regions of the two open reading frames were amplified by PCR; His-tag; made in house; host or cells: E. coli strain M15 (pREP4) with pYW021 (pQE32-pprA) or pYW024 (pQE31-pprB)
T1 sequence (Q9HWA7 1-922): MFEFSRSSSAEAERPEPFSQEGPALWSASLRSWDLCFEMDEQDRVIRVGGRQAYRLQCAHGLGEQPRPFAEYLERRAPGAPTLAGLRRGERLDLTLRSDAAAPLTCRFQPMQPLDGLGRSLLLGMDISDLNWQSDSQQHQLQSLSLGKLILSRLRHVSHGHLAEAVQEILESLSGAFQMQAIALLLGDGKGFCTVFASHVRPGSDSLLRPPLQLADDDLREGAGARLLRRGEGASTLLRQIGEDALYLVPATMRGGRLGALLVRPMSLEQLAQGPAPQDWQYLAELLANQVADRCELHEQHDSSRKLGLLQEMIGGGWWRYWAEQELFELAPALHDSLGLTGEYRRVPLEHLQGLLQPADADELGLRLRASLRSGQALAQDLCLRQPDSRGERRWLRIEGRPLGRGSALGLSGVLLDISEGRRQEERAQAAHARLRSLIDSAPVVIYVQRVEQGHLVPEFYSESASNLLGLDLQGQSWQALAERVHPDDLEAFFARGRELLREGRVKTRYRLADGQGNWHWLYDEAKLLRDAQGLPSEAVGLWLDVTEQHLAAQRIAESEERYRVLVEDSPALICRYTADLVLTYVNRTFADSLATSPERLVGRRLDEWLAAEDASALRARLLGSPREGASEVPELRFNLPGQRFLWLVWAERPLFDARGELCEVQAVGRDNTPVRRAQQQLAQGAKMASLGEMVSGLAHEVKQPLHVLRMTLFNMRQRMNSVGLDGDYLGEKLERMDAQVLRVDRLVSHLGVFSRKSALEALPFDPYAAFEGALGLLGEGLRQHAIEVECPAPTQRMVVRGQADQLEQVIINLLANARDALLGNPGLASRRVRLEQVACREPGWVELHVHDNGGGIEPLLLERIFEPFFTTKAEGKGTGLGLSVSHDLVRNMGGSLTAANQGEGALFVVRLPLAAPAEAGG


Key:
P. aeruginosa PAK1-3 = test: Antibiotic resistance of spontaneous neomycin-resistant mutant PAK1-3 compared with parent PAK; format: cell-based, Pseudomonas aeruginosa; settings: mutant PAK1-3 versus parent strain PAK
Experimental: A mutant P. aeruginosa (PAK) strain was used to identify the pprA membrane permeability-associated gene. Spontaneous neomycin resistant mutants of PAK were selected by culturing on L-agar medium containing 200 μg/ml neomycin.

[1] = test system: clinical isolates of P. aeruginosa; test: Antibiotic sensitivity of CF and non-CF blood clinical isolates; format: cell-based, Pseudomonas aeruginosa; settings: 18 CF and 18 non-CF blood isolates; tetracycline 100 μg/ml
Experimental: Overexpression of the pprB gene in clinical isolates increases sensitivity to aminoglycosides. The pprB overexpresser construct was introduced into aminoglycoside-resistant clinical isolates of P. aeruginosa. 18 cystic fibrosis (CF) isolates and 18 non-CF blood isolates showing varying degrees of resistance to all aminoglycosides were randomly chosen for analysis. Since most of the strains were also resistant to carbenicillin, but sensitive to tetracycline (100 μg/ml), a tetracycline-resistant construct, pRRBTc, that expresses the pprB gene under lac promoter was used.

PprA / PprB [2] = test: In vitro phosphorylation assay with [γ-32P] ATP; format: biochemical, Pseudomonas aeruginosa; settings: 5 min at room temperature, SDS-PAGE, X-ray film
Excerpt: (§1) PprA or PprB were purified and expressed at high levels in E. coli. To produce PprA or PprB in E.coli, coding regions of the two open reading frames were amplified by PCR as described in Wang et al., supra. The PCR products were first cloned into pCR2.1-TOPO, designated pYW017 and pYW020, respectively. Subsequently, a 2.8 kb pprA fragment from pYW017 and an 862 bp pprB fragment from pYW020 were isolated and subcloned into the BamHI and HindIII sites of pQE32 and pQE31, resulting in pYW021 and pYW024, respectively.
(§2) To purify the His-tagged PprA or PprB, E.coli strain M15 harboring pREP4 and pYW021 or pYW024 were induced with 1 mM IPTG for six hours at 28° C. His-tagged PprA and PprB were affinity purified using Ni-agarose column from the soluble fraction of the cell extracts according to the protocol provided by Qiagen, Inc. The purified proteins were dialyzed against storage buffer (50 mM TrisCl pH8.0, 50 mM KCl, 5 mM MgCl2, 1 mM DTT and 50% glycerol) for overnight and stored at−20° C. until use.
(§3) PprA and PprB function in a two-component regulatory system. Like other two-component regulatory genes, both PprA and PprB contain conserved phosphorylation sites (histidine and aspartate, respectively). An in vitro phosphorylation assay was performed to investigate the relationship between the PprA and PprB. PprA and PprB were purified as described in Example 4. […]

PprA / PprB [3] = biological target: T1, PprA / PprB; test: In vitro phosphorylation assay with [γ-32P] ATP; format: biochemical; settings: 5 min at room temperature, SDS-PAGE, X-ray film
Excerpt: as §1, §2, §3

PAK1-3 cells = test: Complementation of PAK1-3: aminoglycoside sensitivity after introduction of plasmids; format: cell-based, Pseudomonas aeruginosa; settings: PprB overexpression compared with PprA overexpression
Excerpt: A gene associated with membrane permeability, termed pprA, was identified by complementation assay in PAK1-3 cells. On the assumption that the PAK1-3 strain is an impermeable mutant due to loss of a gene function, an effort was made to complement the mutant with wild type PAK chromosomal DNA clones. A clone bank of 3-5 kb PAK chromosomal DNA was constructed in pUCP18, a broad host range plasmid with a lac promoter and β-lactamase. Plasmids with DNA inserts were gel purified from the clone bank and electroporated into PAK1-3.
Transformants were first selected on L-agar containing carbenicillin (150 μg/ml) and then replica plated on L-agar containing carbenicillin (150 μg/ml) plus neomycin (200 μg/ml) to screen for isolates that are sensitive to aminoglycosides. […] Plasmids were purified from the three isolates and re-transformed into fresh PAK1-3 cells. […] This plasmid was designated pUCP18B.
The pprB gene was amplified from the PAK chromosome by PCR and cloned into pUCP19, inserted in the same or opposite direction relative to the lac promoter on the vector. The resulting constructs were designated pZLRR-α and pZLRR-β, respectively. See, Wang et al., 2003, Antimicrobial Agents and Chemotherapy 47:95-101. The PCR product was cloned into pCR2.1-TOPO, resulting pCR-RR in which the pprB gene is in the opposite direction relative to the lac promoter. […]

| Molecule | change of resistance/sensitivity of PAK1-3 to the antibiotic (P. aeruginosa PAK1-3) | other results |
| --- | --- | --- |
| NCC[C@H](O)C(=O)N[C@@H]1C[C@H](N)[C@@H](O[C@H]2O[C@H](CN)[C@@H](O)[C@H](O)[C@H]2O)[C@H](O)[C@H]1O[C@H]1O[C@H](CO)[C@@H](O)[C@H](N)[C@H]1O [amikacine] | increased resistance | – |
| O=C(O)c1cn(C2CC2)c2cc(N3CCNCC3)c(F)cc2c1=O [ciprofloxacin] | increased resistance | – |
| NC[C@H]1O[C@H](O[C@H]2[C@H](O)[C@@H](O[C@H]3O[C@H](CO)[C@@H](O)[C@H](N)[C@H]3O)[C@H](N)C[C@@H]2N)[C@H](N)C[C@@H]1O [tobamycin] | increased resistance | – |
| [H]/N=C(/N)N[C@H]1[C@H](O)[C@@H](O)[C@H](O[C@@H]2O[C@@H](C)[C@](O)(C=O)[C@H]2O[C@@H]2O[C@@H](CO)[C@H](O)[C@@H](O)[C@@H]2NC)[C@@H](N/C(N)=N\[H])[C@@H]1O [streptomycin] | increased resistance | – |
| gentamicin | increased resistance | – |
| CC[C@H]1OC(=O)[C@H](C)[C@@H](O[C@H]2C[C@@](C)(OC)[C@@H](O)[C@H](C)O2)[C@H](C)[C@@H](O[C@@H]2O[C@H](C)C[C@H](N(C)C)[C@H]2O)[C@](C)(O)C[C@@H](C)C(=O)[C@H](C)[C@@H](O)[C@]1(C)O [erythromycin] | increased resistance | – |
| CC1(C)S[C@@H]2[C@H](NC(=O)C(C(=O)O)c3ccccc3)C(=O)N2[C@H]1C(=O)O (some centres unmarked) [carbenicillin] | not significantly changed | sensitivity of most of the clinical isolates [1]: resistant |
| PprA: putative histidine kinase homolog (PA4293) encoded by pprA, SEQ ID NO:3; His-tagged, purified from E. coli (protein, listed as Pseudomonas aeruginosa, His tag, His-tagged, purified from E. coli) MFEFSRSSSAEAERPEPFSQEGPALWSASLRSWDLCFEMDEQDRVIRVGGRQAYRLQCAHGLGEQPRPFAEYLERRAPGAPTLAGLRRGERLDLTLRSDAAAPLTCRFQPMQPLDGLGRSLLLGMDISDLNWQSDSQQHQLQSLSLGKLILSRLRHVSHGHLAEAVQEILESLSGAFQMQAIALLLGDGKGFCTVFASHVRPGSDSLLRPPLQLADDDLREGAGARLLRRGEGASTLLRQIGEDALYLVPATMRGGRLGALLVRPMSLEQLAQGPAPQDWQYLAELLANQVADRCELHEQHDSSRKLGLLQEMIGGGWWRYWAEQELFELAPALHDSLGLTGEYRRVPLEHLQGLLQPADADELGLRLRASLRSGQALAQDLCLRQPDSRGERRWLRIEGRPLGRGSALGLSGVLLDISEGRRQEERAQAAHARLRSLIDSAPVVIYVQRVEQGHLVPEFYSESASNLLGLDLQGQSWQALAERVHPDDLEAFFARGRELLREGRVKTRYRLADGQGNWHWLYDEAKLLRDAQGLPSEAVGLWLDVTEQHLAAQRIAESEERYRVLVEDSPALICRYTADLVLTYVNRTFADSLATSPERLVGRRLDEWLAAEDASALRARLLGSPREGASEVPELRFNLPGQRFLWLVWAERPLFDARGELCEVQAVGRDNTPVRRAQQQLAQGAKMASLGEMVSGLAHEVKQPLHVLRMTLFNMRQRMNSVGLDGDYLGEKLERMDAQVLRVDRLVSHLGVFSRKSALEALPFDPYAAFEGALGLLGEGLRQHAIEVECPAPTQRMVVRGQADQLEQVIINLLANARDALLGNPGLASRRVRLEQVACREPGWVELHVHDNGGGIEPLLLERIFEPFFTTKAEGKGTGLGLSVSHDLVRNMGGSLTAANQGEGALFVVRLPLAAPAEAGG | – | phosphorylation of the purified protein alone (PprA / PprB [2]): phosphorylated |
| PprB: putative response regulator (PA4296) encoded by pprB, SEQ ID NO:4; His-tagged, purified from E. coli (protein, listed as Pseudomonas aeruginosa, His tag, His-tagged, purified from E. coli) MDKPASRHFSVLIIDDEPQVTSELRELLENSGYRCVTSTHRESAIASFQADPNIGLVICDLYLGQDNGIRLIESLKEVAGNGRFFESIILTGHDGRQEVIEAMRVGAADYYQKPVAPQELLHGLERLESRLHERVRSQLSLSHVNQRLEYLAESLNSIYRDIHKIKYEVHGNSQPSALRSEDSQPSAPPAPVAESQVSPSNPLFGKLSPRQQAVARLVSKGLTNYQIAYELGITENTVKLYVSQVLRLMHMHNRTQLALALSPAAMQQGSGAVVH | – | phosphorylation of PprB when PprA was mixed with PprB (PprA / PprB [3]): highly phosphorylated; effect of overexpression on the MIC change of PAK1-3 (PAK1-3 cells): much more dramatic |
